The record followed here is the supplement of paper PMC12420376.

For assay [1], the system named is KURAMOCHI
Nature of the assay: drug sensitivity score (DSS2) on cancer cell count; higher = more sensitive; extreme values may be limits of the assay. To be noted: 72 h. A digest of the protocol: (§1)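 Screen quality was checked by Z', and a drug sensitivity score was derived in Breeze from logistic fits of the cancer cell counts. These counts were obtained by imaging at 10× (4 fields) after fixing and immunostaining for CK8/18 with Hoechst. Before that, ovarian cancer cells, alone or in 1:1 direct co-culture with lung or skin fibroblasts, had been treated for 72 h on 384-well plates acoustically pre-spotted with 528 approved and investigational compounds at 5 concentrations.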

In assay [2] the test system is OVCAR8. Described as above. To be noted: 72 h. A digest of the protocol: as §1
The mark [3] stands for this setting: co-cultured fibroblast: BJHTERT.
The mark [4] stands for this setting: co-cultured fibroblast: none (monoculture).

Molecules are shown by their SMILES.

Take `CS(=O)(=O)c1ccc(-c2cnc(N)c(C(=O)Nc3ccccc3)n2)cc1` [VE-821]: the drug sensitivity score in assay [1] (setting [3]) was 0 DSS; in assay [1] (co-cultured fibroblast: WI38), 0 DSS; in assay [1] (setting [4]) it was 0 DSS; in assay [2] (setting [3]), 3.1 DSS; in assay [2] (co-cultured fibroblast: WI38) it was 0 DSS; in assay [2] (setting [4]), 0 DSS.
For `CC(C)Cn1cnc2c(N)nc3ccccc3c21` [Imiquimod], the drug sensitivity score in assay [1] (setting [3]) turned out to be 0 DSS; in assay [1] (co-cultured fibroblast: WI38), 0.1 DSS; in assay [1] (setting [4]), 13.4 DSS; in assay [2] (setting [3]), 0.4 DSS; in assay [2] (co-cultured fibroblast: WI38), 0 DSS; in assay [2] (setting [4]) it was 2.8 DSS.
For `S=C(NCc1ccc2c(c1)OCO2)N1CCN(c2ncnc3c2oc2ccccc23)CC1` [Amuvatinib], the drug sensitivity score in assay [1] (setting [3]) was 2.5 DSS; in assay [1] (co-cultured fibroblast: WI38) it was 0.5 DSS; in assay [1] (setting [4]) it was 0 DSS; in assay [2] (setting [3]), 8.6 DSS; in assay [2] (co-cultured fibroblast: WI38), 0 DSS; in assay [2] (setting [4]), 2.2 DSS.
In the case of `CN1CCC(COc2cnc(-c3cccc(Cn4nc(-c5cccc(C#N)c5)ccc4=O)c3)nc2)CC1` [Tepotinib], the drug sensitivity score was determined as 0.2 DSS in assay [1] (setting [3]); 0 DSS in assay [1] (co-cultured fibroblast: WI38); 3 DSS in assay [1] (setting [4]); 0 DSS in assay [2] (setting [3]); 0 DSS in assay [2] (co-cultured fibroblast: WI38); 1.8 DSS in assay [2] (setting [4]).
On to `CC[C@H](Nc1ncnc2[nH]cnc12)c1nc2cccc(F)c2c(=O)n1-c1ccccc1` [Idelalisib], for which the drug sensitivity score in assay [1] (setting [3]) stood at 10.9 DSS; in assay [1] (co-cultured fibroblast: WI38), 5.5 DSS; in assay [1] (setting [4]) it was 3.9 DSS; in assay [2] (setting [3]) it was 2.9 DSS; in assay [2] (co-cultured fibroblast: WI38) it was 0 DSS; in assay [2] (setting [4]), 0.3 DSS.
Regarding `Cc1c(F)cc(C(=O)NC2CC2)cc1-c1ccc(C(=O)NCC(C)(C)C)cn1` [Losmapimod], the drug sensitivity score in assay [1] (setting [3]) is 2.4 DSS; in assay [1] (co-cultured fibroblast: WI38), 0 DSS; in assay [1] (setting [4]) it was 0 DSS; in assay [2] (setting [3]), 0.7 DSS; in assay [2] (co-cultured fibroblast: WI38), 0 DSS; in assay [2] (setting [4]), 1.5 DSS.
On to `CC1(C)CNc2cc(NC(=O)c3cccnc3NCc3ccncc3)ccc21` [Motesanib], for which the drug sensitivity score in assay [1] (setting [3]) amounted to 0.3 DSS; in assay [1] (co-cultured fibroblast: WI38) it was 0.2 DSS; in assay [1] (setting [4]) it was 0 DSS; in assay [2] (setting [3]), 0 DSS; in assay [2] (co-cultured fibroblast: WI38), 1 DSS; in assay [2] (setting [4]), 2 DSS.
For the compound `CNC(=O)c1cc(COc2nnc(Nc3ccc(Cl)cc3)c3ccoc23)ccn1` [Telatinib], the drug sensitivity score was 0 DSS in assay [1] (setting [3]); 0.4 DSS in assay [1] (co-cultured fibroblast: WI38); 16.6 DSS in assay [1] (setting [4]); 1.1 DSS in assay [2] (setting [3]); 0 DSS in assay [2] (co-cultured fibroblast: WI38); 0 DSS in assay [2] (setting [4]).
With `COC(=O)c1ccc2c(c1)[nH]c1ncnc(NCCCN3CCCCC3)c12` [UM729], the drug sensitivity score in assay [1] (setting [3]) was 1.1 DSS; in assay [1] (co-cultured fibroblast: WI38), 0 DSS; in assay [1] (setting [4]), 4.1 DSS; in assay [2] (setting [3]), 6.9 DSS; in assay [2] (co-cultured fibroblast: WI38), 1.1 DSS; in assay [2] (setting [4]), 3.5 DSS.
Turning to `CS(=O)(=O)N1CCN(Cc2cc3nc(-c4cccc5[nH]ncc45)nc(N4CCOCC4)c3s2)CC1` [Pictilisib], the drug sensitivity score in assay [1] (setting [3]) was determined as 15 DSS; in assay [1] (co-cultured fibroblast: WI38), 12.1 DSS; in assay [1] (setting [4]) it was 18.2 DSS; in assay [2] (setting [3]), 6.7 DSS; in assay [2] (co-cultured fibroblast: WI38), 5.4 DSS; in assay [2] (setting [4]), 7.9 DSS.
As for `CNC(=O)c1cc(Oc2ccc(NC(=O)Nc3ccc(Cl)c(C(F)(F)F)c3)c(F)c2)ccn1` [Regorafenib], the drug sensitivity score in assay [1] (setting [3]) was determined as 5.5 DSS; in assay [1] (co-cultured fibroblast: WI38) it was 3.6 DSS; in assay [1] (setting [4]), 3.2 DSS; in assay [2] (setting [3]) it was 5.4 DSS; in assay [2] (co-cultured fibroblast: WI38) it was 3.3 DSS; in assay [2] (setting [4]), 5.5 DSS.
`CNC(=O)[C@@H](NC(=O)[C@H](CC(C)C)[C@H](O)C(=O)NO)C(C)(C)C` [Marimastat]: the drug sensitivity score is 0 DSS in assay [1] (setting [3]); 0 DSS in assay [1] (co-cultured fibroblast: WI38); 0 DSS in assay [1] (setting [4]); 0.2 DSS in assay [2] (setting [3]); 1.4 DSS in assay [2] (co-cultured fibroblast: WI38); 0.7 DSS in assay [2] (setting [4]).
Consider `CC1=C(/C=C/C(C)=C/C=C/C(C)=C/C(=O)O)C(C)(C)CCC1` [Tretinoin], for which the drug sensitivity score came to 0 DSS in assay [1] (setting [3]); 0 DSS in assay [1] (co-cultured fibroblast: WI38); 8.2 DSS in assay [1] (setting [4]); 0 DSS in assay [2] (setting [3]); 0 DSS in assay [2] (co-cultured fibroblast: WI38); 0 DSS in assay [2] (setting [4]).
For the compound `CN[C@@H](C)C(=O)N[C@H](C(=O)N1CCC[C@H]1c1nc(C(=O)c2ccc(F)cc2)cs1)C1CCCCC1` [NVP-LCL161], the drug sensitivity score in assay [1] (setting [3]) stood at 4 DSS; in assay [1] (co-cultured fibroblast: WI38) it was 1.9 DSS; in assay [1] (setting [4]) it was 2.5 DSS; in assay [2] (setting [3]) it was 34.7 DSS; in assay [2] (co-cultured fibroblast: WI38) it was 27.7 DSS; in assay [2] (setting [4]), 23.2 DSS.
`CN(c1ncccc1CNc1nc(Nc2ccc3c(c2)CC(=O)N3)ncc1C(F)(F)F)S(C)(=O)=O`: the drug sensitivity score in assay [1] (setting [3]) worked out at 11.5 DSS; in assay [1] (co-cultured fibroblast: WI38) it was 10.7 DSS; in assay [1] (setting [4]), 12.6 DSS; in assay [2] (setting [3]), 8.5 DSS; in assay [2] (co-cultured fibroblast: WI38), 6.6 DSS; in assay [2] (setting [4]), 6.2 DSS.
As to `CCN(c1cc(-c2ccc(CN3CCOCC3)cc2)cc(C(=O)NCc2c(C)cc(C)[nH]c2=O)c1C)C1CCOCC1` [Tazemetostat], the drug sensitivity score in assay [1] (setting [3]), in assay [1] (co-cultured fibroblast: WI38), in assay [1] (setting [4]), in assay [2] (setting [3]), in assay [2] (co-cultured fibroblast: WI38) and in assay [2] (setting [4]) was 0 DSS each time.
For `O=C(O)CCCCC(CCSCc1ccccc1)SCc1ccccc1` (configuration not stated) [CPI-613], the drug sensitivity score in assay [1] (setting [3]) came out at 0 DSS; in assay [1] (co-cultured fibroblast: WI38) it was 0 DSS; in assay [1] (setting [4]) it was 0 DSS; in assay [2] (setting [3]) it was 0 DSS; in assay [2] (co-cultured fibroblast: WI38), 1.3 DSS; in assay [2] (setting [4]), 0 DSS.
Regarding `COC(=O)c1ccc2c(c1)NC(=O)/C2=C(\Nc1ccc(N(C)C(=O)CN2CCN(C)CC2)cc1)c1ccccc1` [Nintedanib], the drug sensitivity score in assay [1] (setting [3]) came to 8.2 DSS; in assay [1] (co-cultured fibroblast: WI38), 2.7 DSS; in assay [1] (setting [4]) it was 4.6 DSS; in assay [2] (setting [3]) it was 9.8 DSS; in assay [2] (co-cultured fibroblast: WI38), 4.6 DSS; in assay [2] (setting [4]) it was 7.9 DSS.
As for `C[C@H](Nc1ncnc2nc[nH]c12)c1cc2cccc(Cl)c2c(=O)n1-c1ccccc1` [Duvelisib], the drug sensitivity score in assay [1] (setting [3]) amounted to 4.6 DSS; in assay [1] (co-cultured fibroblast: WI38), 0.5 DSS; in assay [1] (setting [4]), 0.3 DSS; in assay [2] (setting [3]), 0.4 DSS; in assay [2] (co-cultured fibroblast: WI38), 0 DSS; in assay [2] (setting [4]), 0 DSS.
Take `CCNC(=O)C[C@@H]1N=C(c2ccc(Cl)cc2)c2cc(OC)ccc2-n2c(C)nnc21` [Molibresib]: the drug sensitivity score came to 6.5 DSS in assay [1] (setting [3]); 9.9 DSS in assay [1] (co-cultured fibroblast: WI38); 6.7 DSS in assay [1] (setting [4]); 12.2 DSS in assay [2] (setting [3]); 5.8 DSS in assay [2] (co-cultured fibroblast: WI38); 13.6 DSS in assay [2] (setting [4]).
As to `COc1cccc2c1c(O)c(C(=O)N(C)c1ccc(C(F)(F)F)cc1)c(=O)n2C` [Tasquinimod], the drug sensitivity score in assay [1] (setting [3]), in assay [1] (co-cultured fibroblast: WI38), in assay [1] (setting [4]), in assay [2] (setting [3]), in assay [2] (co-cultured fibroblast: WI38) and in assay [2] (setting [4]) was 0 DSS in each case.
Regarding `Cc1cc(Nc2ncc(Cl)c(Nc3ccccc3S(=O)(=O)C(C)C)n2)c(OC(C)C)cc1C1CCNCC1` [Ceritinib], the drug sensitivity score in assay [1] (setting [3]) worked out at 1.3 DSS; in assay [1] (co-cultured fibroblast: WI38), 0 DSS; in assay [1] (setting [4]) it was 2.2 DSS; in assay [2] (setting [3]), 1.8 DSS; in assay [2] (co-cultured fibroblast: WI38) it was 0 DSS; in assay [2] (setting [4]) it was 3.7 DSS.
